Results from the NIST ThermoML archive (doi:10.1021/je3007666).
Numbers after ± are expanded uncertainties.

Key:
[1] = relative permittivity at zero frequency (dimensionless); details: 100 kPa, Liquid, Dielectrometer
[2] = relative permittivity at zero frequency (dimensionless); xn = mol fraction of the nth substance listed; details: 100 kPa, Liquid, Dielectrometer

relative permittivity at zero frequency ([1]; 288.15 K)	relative permittivity at zero frequency ([1]; 293.15 K)	relative permittivity at zero frequency ([1]; 298.15 K)	relative permittivity at zero frequency ([1]; 303.15 K)	relative permittivity at zero frequency ([1]; 308.15 K)	relative permittivity at zero frequency ([2]; 288.15 K, x2 = 0)	relative permittivity at zero frequency ([2]; 293.15 K, x2 = 0)	relative permittivity at zero frequency ([2]; 298.15 K, x2 = 0)	relative permittivity at zero frequency ([2]; 303.15 K, x2 = 0)	relative permittivity at zero frequency ([2]; 308.15 K, x2 = 0)	Compound	other results
19.51 ± 0.06	18.71 ± 0.06	17.96 ± 0.06	17.23 ± 0.06	16.53 ± 0.06	–	–	–	–	–	CC(C)CO [2-methyl-1-propanol]	–
14.49 ± 0.06	13.38 ± 0.06	12.49 ± 0.06	11.34 ± 0.06	10.4 ± 0.06	–	–	–	–	–	CC(C)(C)O [2-methylpropan-2-ol]	–
–	–	–	–	–	–	–	–	–	–	CC(C)(C)O [2-methylpropan-2-ol] + CC(C)CO	relative permittivity at zero frequency ([2]; 288.15 K, x1 = 1): 14.49 ± 0.06; relative permittivity at zero frequency ([2]; 293.15 K, x1 = 1): 13.38 ± 0.06; relative permittivity at zero frequency ([2]; 298.15 K, x1 = 1): 12.49 ± 0.06; relative permittivity at zero frequency ([2]; 303.15 K, x1 = 1): 11.34 ± 0.06; relative permittivity at zero frequency ([2]; 308.15 K, x1 = 1): 10.4 ± 0.06
19.01 ± 0.06	18.28 ± 0.06	17.58 ± 0.06	16.91 ± 0.06	16.26 ± 0.06	–	–	–	–	–	CCCCO [butan-1-ol]	–
–	–	–	–	–	19.01 ± 0.06	18.28 ± 0.06	17.58 ± 0.06	16.91 ± 0.06	16.26 ± 0.06	CCCCO [butan-1-ol] + CC(C)(C)O	–
–	–	–	–	–	19.01 ± 0.06	18.28 ± 0.06	17.58 ± 0.06	16.91 ± 0.06	16.26 ± 0.06	CCCCO [butan-1-ol] + CC(C)CO	–
–	–	–	–	–	19.01 ± 0.06	18.28 ± 0.06	17.58 ± 0.06	16.91 ± 0.06	16.26 ± 0.06	CCCCO [butan-1-ol] + CCC(C)O	–
18.47 ± 0.06	17.51 ± 0.06	16.6 ± 0.06	15.75 ± 0.06	14.94 ± 0.06	–	–	–	–	–	CCC(C)O (stereo not given) [butan-2-ol]	–
–	–	–	–	–	18.47 ± 0.06	17.51 ± 0.06	16.6 ± 0.06	15.75 ± 0.06	14.94 ± 0.06	CCC(C)O (stereo not given) [butan-2-ol] + CC(C)(C)O	–
–	–	–	–	–	–	–	–	–	–	CCC(C)O (stereo not given) [butan-2-ol] + CC(C)CO	relative permittivity at zero frequency ([2]; 288.15 K, x1 = 1): 18.47 ± 0.06; relative permittivity at zero frequency ([2]; 293.15 K, x1 = 1): 17.51 ± 0.06; relative permittivity at zero frequency ([2]; 298.15 K, x1 = 1): 16.6 ± 0.06; relative permittivity at zero frequency ([2]; 303.15 K, x1 = 1): 15.75 ± 0.06; relative permittivity at zero frequency ([2]; 308.15 K, x1 = 1): 14.94 ± 0.06
